Entries after “also recorded” stand apart in the source; their conditions may differ. Square brackets hold non-standard residues; d marks the D form. * marks the point of attachment. Iac = imidazole-4-acrylic acid, O=C(/C=C/c1c[nH]cn1)*; Acetyl(2-(4-imidazolyl)) = O=C(Cc1c[nH]cn1)*
Test system: Male Sprague-Dawley rats
Assay: Arterial blood pressure and heart rate after intravenous injection in anesthetized rats
Type: in vivo
Details: 10 micrograms i.v.; for heart rate before intravenous injection: the 'from' value; for heart rate after intravenous injection: the 'to' value; for change in arterial blood pressure / change in arterial pulse pressure: isoflurane-anesthetized rats
Description: FIG. 9 is a graph showing the changes in arterial blood pressure caused by [Iaa^1]PACAP38, [Iaa^1,D-Ser^2]PACAP38, [Iaa^1,Ala^22]PACAP38, and [Iaa^1,D-Ser^2,Ala^22]PACAP38. Male Sprague-Dawley rats (300-325 g) were anesthetized with 5% isoflurane for induction and then intubated. The rats were then ventilated (Hallowell EMC) with 100% O2 and 1-2% isoflurane. A PE-50 cannula was then placed in the femoral artery and connected to a pressure transducer. The arterial pressure signal was sent to an electronic chart recorder (BioPac). Heart rate was electronically derived from the arterial pressure signal. A similar PE-50 cannula was also placed in the femoral vein to allow for intravenous injection of the test peptides. Ten micrograms of the test peptides were injected intravenously in 100 μl of 0.9% NaCl in a random order and the cannula was immediately flushed with 100 μl of 0.9% NaCl. Changes in blood pressure and heart rate were calculated from the electronic record. […] Intravenous injection of [Iaa1]PACAP38 or [Iaa1,Ala22]PACAP38 also produced an increase in the heart rate from 378 bpm to 425 bpm or from 415 bpm to 440 bpm, respectively.
FIG. 10 is a graph showing the changes in arterial blood pressure caused by [Iac^1]PACAP38, [Iac^1,Ala^22]PACAP38, [Iac^1,D-Ser^2,Ala^22]PACAP38, and [Iaa^1,Ala^16,17,D-Lys^38]PACAP38. Male Sprague-Dawley rats (300-325 g) were anesthetized with 5% isoflurane for induction and then intubated. The rats were then ventilated (Hallowell EMC) with 100% O2 and 1-2% isoflurane. A PE-50 cannula was then placed in the femoral artery and connected to a pressure transducer. The arterial pressure signal was sent to an electronic chart recorder (BioPac). Heart rate was electronically derived from the arterial pressure signal. A similar PE-50 cannula was also placed in the femoral vein to allow for intravenous injection of the test peptides. Ten micrograms of the test peptides were injected intravenously in 100 μl of 0.9% NaCl in a random order and the cannula was immediately flushed with 100 μl of 0.9% NaCl. Changes in blood pressure and heart rate were calculated from the electronic record. Intravenous injection of [Iac^1,Ala^22]PACAP38 or [Iac^1,D-Ser^2,Ala^22]PACAP38 produced an increase in the heart rate from 416 bpm to 435 bpm or from 420 bpm to 441 bpm, respectively.
PACAP38 is a directly-acting arterial vasodilator and an indirectly-acting arterial vasoconstrictor. The rapid vasodilator response to intravenous administration of PACAP38 is due to stimulation of PAC1, VPAC1 and VPAC2 receptors in the blood vessels, while the slightly delayed vasoconstrictor response is mainly due to stimulation of PAC1 receptors in the adrenal medulla and the subsequent release of adrenal catecholamines. […] The critical parameter for picking a PACAP38 analog for treating a specific disease is not potency but therapeutic index.

Substance | heart rate before intravenous injection [bpm] | heart rate after intravenous injection [bpm] | change in the heart rate (in words) | change in arterial blood pressure | change in arterial pulse pressure | change in arterial blood pressure (D-Lys38]PACAP38) | change in arterial pulse pressure (D-Lys38]PACAP38) | duration of the arterial blood pressure response (compared with [Iaa1]PACAP38) | pattern of the arterial blood pressure response (compared with other peptides)
Iac Ser Asp Gly Ile Phe Thr Asp Ser Tyr Ser Arg Tyr Arg Lys Gln Met Ala Val Lys Lys Ala Leu Ala Ala Val Leu Gly Lys Arg Tyr Lys Gln Arg Val Lys Asn Lys-NH2 (Iac-SDGIFTDSYSRYRKQMAVKKALAAVLGKRYKQRVKNK-NH2) [[Iac^1,Ala^22]PACAP38] | 416 | 435 |  |  |  |  |  |  | 
Iaa Ser Asp Gly Ile Phe Thr Asp Ser Tyr Ser Arg Tyr Arg Lys Ala Ala Ala Val Lys Lys Tyr Leu Ala Ala Val Leu Gly Lys Arg Tyr Lys Gln Arg Val Lys Asn D-Lys-NH2 ({Acetyl(2-(4-imidazolyl))}-SDGIFTDSYSRYRKAAAVKKYLAAVLGKRYKQRVKN[dK]-NH2; SMILES CC[C@H](C)[C@H](NC(=O)CNC(=O)[C@H](CC(=O)O)NC(=O)[C@H](CO)NC(=O)Cc1c[nH]cn1)C(=O)N[C@@H](Cc1ccccc1)C(=O)N[C@H](C(=O)N[C@@H](CC(=O)O)C(=O)N[C@@H](CO)C(=O)N[C@@H](Cc1ccc(O)cc1)C(=O)N[C@@H](CO)C(=O)N[C@@H](CCCNC(=N)N)C(=O)N[C@@H](Cc1ccc(O)cc1)C(=O)N[C@@H](CCCNC(=N)N)C(=O)N[C@@H](CCCCN)C(=O)N[C@@H](C)C(=O)N[C@@H](C)C(=O)N[C@@H](C)C(=O)N[C@H](C(=O)N[C@@H](CCCCN)C(=O)N[C@@H](CCCCN)C(=O)N[C@@H](Cc1ccc(O)cc1)C(=O)N[C@@H](CC(C)C)C(=O)N[C@@H](C)C(=O)N[C@@H](C)C(=O)N[C@H](C(=O)N[C@@H](CC(C)C)C(=O)NCC(=O)N[C@@H](CCCCN)C(=O)N[C@@H](CCCNC(=N)N)C(=O)N[C@@H](Cc1ccc(O)cc1)C(=O)N[C@@H](CCCCN)C(=O)N[C@@H](CCC(N)=O)C(=O)N[C@@H](CCCNC(=N)N)C(=O)N[C@H](C(=O)N[C@@H](CCCCN)C(=O)N[C@@H](CC(N)=O)C(=O)N[C@H](CCCCN)C(N)=O)C(C)C)C(C)C)C(C)C)[C@@H](C)O) [[Iaa^1,Ala^16,17,D-Lys^38]PACAP38] |  |  | large decrease | large and prolonged decrease | large and prolonged decrease | large decrease | large decrease | much longer | 
Iaa Ser Asp Gly Ile Phe Thr Asp Ser Tyr Ser Arg Tyr Arg Lys Gln Met Ala Val Lys Lys Ala Leu Ala Ala Val Leu Gly Lys Arg Tyr Lys Gln Arg Val Lys Asn Lys-NH2 ({Acetyl(2-(4-imidazolyl))}-SDGIFTDSYSRYRKQMAVKKALAAVLGKRYKQRVKNK-NH2; SMILES CC[C@H](C)[C@H](NC(=O)CNC(=O)[C@H](CC(=O)O)NC(=O)[C@H](CO)NC(=O)Cc1c[nH]cn1)C(=O)N[C@@H](Cc1ccccc1)C(=O)N[C@H](C(=O)N[C@@H](CC(=O)O)C(=O)N[C@@H](CO)C(=O)N[C@@H](Cc1ccc(O)cc1)C(=O)N[C@@H](CO)C(=O)N[C@@H](CCCNC(=N)N)C(=O)N[C@@H](Cc1ccc(O)cc1)C(=O)N[C@@H](CCCNC(=N)N)C(=O)N[C@@H](CCCCN)C(=O)N[C@@H](CCC(N)=O)C(=O)N[C@@H](CCSC)C(=O)N[C@@H](C)C(=O)N[C@H](C(=O)N[C@@H](CCCCN)C(=O)N[C@@H](CCCCN)C(=O)N[C@@H](C)C(=O)N[C@@H](CC(C)C)C(=O)N[C@@H](C)C(=O)N[C@@H](C)C(=O)N[C@H](C(=O)N[C@@H](CC(C)C)C(=O)NCC(=O)N[C@@H](CCCCN)C(=O)N[C@@H](CCCNC(=N)N)C(=O)N[C@@H](Cc1ccc(O)cc1)C(=O)N[C@@H](CCCCN)C(=O)N[C@@H](CCC(N)=O)C(=O)N[C@@H](CCCNC(=N)N)C(=O)N[C@H](C(=O)N[C@@H](CCCCN)C(=O)N[C@@H](CC(N)=O)C(=O)N[C@@H](CCCCN)C(N)=O)C(C)C)C(C)C)C(C)C)[C@@H](C)O) [[Iaa^1,Ala^22]PACAP38] | 415 | 440 |  | large decrease |  |  |  |  | 
Iac D-Ser Asp Gly Ile Phe Thr Asp Ser Tyr Ser Arg Tyr Arg Lys Gln Met Ala Val Lys Lys Ala Leu Ala Ala Val Leu Gly Lys Arg Tyr Lys Gln Arg Val Lys Asn Lys-NH2 (Iac-[dS]DGIFTDSYSRYRKQMAVKKALAAVLGKRYKQRVKNK-NH2) [[Iac^1,D-Ser^2,Ala^22]PACAP38] | 420 | 441 |  |  |  |  |  |  | 
Iaa D-Ser Asp Gly Ile Phe Thr Asp Ser Tyr Ser Arg Tyr Arg Lys Gln Met Ala Val Lys Lys Ala Leu Ala Ala Val Leu Gly Lys Arg Tyr Lys Gln Arg Val Lys Asn Lys-NH2 ({Acetyl(2-(4-imidazolyl))}-[dS]DGIFTDSYSRYRKQMAVKKALAAVLGKRYKQRVKNK-NH2; SMILES CC[C@H](C)[C@H](NC(=O)CNC(=O)[C@H](CC(=O)O)NC(=O)[C@@H](CO)NC(=O)Cc1c[nH]cn1)C(=O)N[C@@H](Cc1ccccc1)C(=O)N[C@H](C(=O)N[C@@H](CC(=O)O)C(=O)N[C@@H](CO)C(=O)N[C@@H](Cc1ccc(O)cc1)C(=O)N[C@@H](CO)C(=O)N[C@@H](CCCNC(=N)N)C(=O)N[C@@H](Cc1ccc(O)cc1)C(=O)N[C@@H](CCCNC(=N)N)C(=O)N[C@@H](CCCCN)C(=O)N[C@@H](CCC(N)=O)C(=O)N[C@@H](CCSC)C(=O)N[C@@H](C)C(=O)N[C@H](C(=O)N[C@@H](CCCCN)C(=O)N[C@@H](CCCCN)C(=O)N[C@@H](C)C(=O)N[C@@H](CC(C)C)C(=O)N[C@@H](C)C(=O)N[C@@H](C)C(=O)N[C@H](C(=O)N[C@@H](CC(C)C)C(=O)NCC(=O)N[C@@H](CCCCN)C(=O)N[C@@H](CCCNC(=N)N)C(=O)N[C@@H](Cc1ccc(O)cc1)C(=O)N[C@@H](CCCCN)C(=O)N[C@@H](CCC(N)=O)C(=O)N[C@@H](CCCNC(=N)N)C(=O)N[C@H](C(=O)N[C@@H](CCCCN)C(=O)N[C@@H](CC(N)=O)C(=O)N[C@@H](CCCCN)C(N)=O)C(C)C)C(C)C)C(C)C)[C@@H](C)O) [[Iaa^1,D-Ser^2,Ala^22]PACAP38] | 410 | 457 |  | slight increase; also recorded: slightly increased |  |  |  |  | expected physiological signature of a highly selective PAC1 receptor agonist
